# Test results from ChEMBL document CHEMBL1201862, “PubChem BioAssay data set” (2004).
# Activity calls are given as the source filed them.
# What was measured:
# Aminopeptidase N = target: T1, Aminopeptidase N (Plasmodium falciparum FcB1/Columbia, UniProt O96935); assay: malaria alanyl aminopeptidase activity blockers – biochemical, fluorogenic H-Leu-NHMec substrate, 1536-well (AID 1445); parameters: species or system Plasmodium falciparum 3D7, 3D7
# T1 sequence (O96935 whole entry): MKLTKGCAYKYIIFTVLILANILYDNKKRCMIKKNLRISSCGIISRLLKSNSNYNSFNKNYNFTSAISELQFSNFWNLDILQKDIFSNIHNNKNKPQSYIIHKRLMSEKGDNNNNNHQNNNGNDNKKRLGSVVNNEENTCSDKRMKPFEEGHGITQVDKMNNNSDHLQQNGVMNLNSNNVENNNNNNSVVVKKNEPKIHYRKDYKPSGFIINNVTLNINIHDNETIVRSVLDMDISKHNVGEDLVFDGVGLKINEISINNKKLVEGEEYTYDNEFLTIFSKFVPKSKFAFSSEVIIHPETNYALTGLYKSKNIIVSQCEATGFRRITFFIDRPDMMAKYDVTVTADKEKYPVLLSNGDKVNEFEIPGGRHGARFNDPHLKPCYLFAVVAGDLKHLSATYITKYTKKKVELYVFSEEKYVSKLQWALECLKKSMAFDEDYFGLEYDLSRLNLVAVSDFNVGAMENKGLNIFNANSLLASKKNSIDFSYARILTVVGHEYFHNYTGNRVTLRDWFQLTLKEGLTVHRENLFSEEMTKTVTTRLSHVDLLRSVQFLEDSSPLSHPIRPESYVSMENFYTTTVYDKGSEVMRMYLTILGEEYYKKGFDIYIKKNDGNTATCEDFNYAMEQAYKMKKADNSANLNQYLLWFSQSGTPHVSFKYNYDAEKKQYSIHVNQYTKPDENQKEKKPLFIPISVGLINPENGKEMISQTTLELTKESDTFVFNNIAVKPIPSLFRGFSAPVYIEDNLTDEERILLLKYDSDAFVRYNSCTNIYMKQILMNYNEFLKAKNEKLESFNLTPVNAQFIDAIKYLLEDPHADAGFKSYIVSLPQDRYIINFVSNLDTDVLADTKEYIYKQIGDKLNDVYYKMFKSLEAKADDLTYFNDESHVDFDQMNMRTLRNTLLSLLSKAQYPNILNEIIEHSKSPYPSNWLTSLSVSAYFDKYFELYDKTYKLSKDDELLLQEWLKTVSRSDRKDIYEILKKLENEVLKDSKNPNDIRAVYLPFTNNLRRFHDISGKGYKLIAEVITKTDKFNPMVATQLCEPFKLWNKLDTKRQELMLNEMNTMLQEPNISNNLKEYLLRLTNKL
# [1] = THP-1 cell cytotoxicity, dose response, cytotoxicity control for non-replicating M. tuberculosis project (AID 489025); type: functional
# cells = type: functional
# Vero = assay: cells; type: functional; conditions: Chlorocebus sabaeus
# Cytochrome P450 2C19 = Cytochrome P450 2C19 (Homo sapiens, UniProt P33261); assay: Cytochrome panel assay with activity outcomes. Panel member name: p450-cyp2c19 Compounds with AC50 equal or less than 10 uM are considered active; type: functional; conditions: read-out: AC50
# Sequence of Cytochrome P450 2C19 (P33261 whole entry): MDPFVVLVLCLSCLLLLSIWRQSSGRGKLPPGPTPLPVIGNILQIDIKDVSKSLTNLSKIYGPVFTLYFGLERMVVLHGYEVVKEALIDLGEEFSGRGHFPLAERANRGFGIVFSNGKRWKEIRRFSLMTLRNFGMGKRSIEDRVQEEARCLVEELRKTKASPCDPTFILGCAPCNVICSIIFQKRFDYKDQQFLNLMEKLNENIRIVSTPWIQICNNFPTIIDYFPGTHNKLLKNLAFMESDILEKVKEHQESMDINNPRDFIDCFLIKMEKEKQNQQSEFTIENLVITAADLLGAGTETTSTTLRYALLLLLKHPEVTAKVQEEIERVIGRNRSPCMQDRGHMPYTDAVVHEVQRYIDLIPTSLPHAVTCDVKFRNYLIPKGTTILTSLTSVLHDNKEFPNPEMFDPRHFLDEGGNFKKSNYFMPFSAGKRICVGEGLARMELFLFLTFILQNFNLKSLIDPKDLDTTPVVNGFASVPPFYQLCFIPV
# Cytochrome P450 3A4 = Cytochrome P450 3A4 (Homo sapiens, UniProt P08684);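 further: CYP3A4 tested as one member of a cytochrome P450 panel screen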
# Sequence of Cytochrome P450 3A4 (P08684 whole entry): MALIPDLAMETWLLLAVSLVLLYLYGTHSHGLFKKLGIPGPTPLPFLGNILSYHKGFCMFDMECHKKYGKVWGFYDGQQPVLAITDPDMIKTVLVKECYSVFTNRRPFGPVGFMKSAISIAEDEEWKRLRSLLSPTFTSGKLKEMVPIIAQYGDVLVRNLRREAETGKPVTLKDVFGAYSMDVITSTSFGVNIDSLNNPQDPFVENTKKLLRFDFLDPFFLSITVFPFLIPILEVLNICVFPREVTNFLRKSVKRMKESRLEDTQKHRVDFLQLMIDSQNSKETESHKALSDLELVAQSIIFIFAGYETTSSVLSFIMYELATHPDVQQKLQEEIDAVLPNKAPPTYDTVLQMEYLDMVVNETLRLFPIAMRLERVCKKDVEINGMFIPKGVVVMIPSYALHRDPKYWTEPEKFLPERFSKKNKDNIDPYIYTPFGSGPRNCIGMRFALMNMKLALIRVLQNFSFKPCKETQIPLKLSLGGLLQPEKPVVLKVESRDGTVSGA
# [2] = target: T2, Heat shock factor protein 1 (Mus musculus, UniProt P38532); assay: decrease of HSF1-responsive luciferase luminescence – cell-based, NIH3T3, dose retest, confirmation (AID 2382); type: functional;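 further: NIH3T3 fibroblasts with HSF1-driven luciferase reporter stressed by proteasome inhibitor MG132; luminescence from HSF1-driven luciferase expression after 8 hours of MG132 stress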
# T2 sequence (P38532 whole entry): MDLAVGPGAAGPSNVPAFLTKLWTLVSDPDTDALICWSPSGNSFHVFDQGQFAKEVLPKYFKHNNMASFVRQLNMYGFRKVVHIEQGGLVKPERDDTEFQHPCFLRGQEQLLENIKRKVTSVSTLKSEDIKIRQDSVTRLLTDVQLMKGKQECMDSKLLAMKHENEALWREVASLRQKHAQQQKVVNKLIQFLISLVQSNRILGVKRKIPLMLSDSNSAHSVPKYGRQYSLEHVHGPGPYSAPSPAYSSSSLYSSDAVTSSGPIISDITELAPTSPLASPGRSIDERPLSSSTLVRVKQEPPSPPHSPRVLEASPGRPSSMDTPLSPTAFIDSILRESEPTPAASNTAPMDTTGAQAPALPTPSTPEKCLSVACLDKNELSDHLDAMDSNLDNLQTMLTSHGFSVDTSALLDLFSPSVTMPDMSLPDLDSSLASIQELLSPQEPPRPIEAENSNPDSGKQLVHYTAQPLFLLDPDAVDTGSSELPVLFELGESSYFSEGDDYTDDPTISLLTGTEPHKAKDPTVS
# Prothrombin = Prothrombin (Homo sapiens, UniProt P00734); assay: Thrombin 1536 HTS Dose Response Confirmation. [Related pubchem assays: 1046 (Thrombin 1536 HTS; hits were confirmed in this assay)]; type: functional
# Cytochrome P450 1A2 = target: T3, Cytochrome P450 1A2 (Homo sapiens, UniProt P05177);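 further: PubChem cytochrome P450 panel assay, CYP1A2 panel member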
# T3 sequence (P05177 whole entry): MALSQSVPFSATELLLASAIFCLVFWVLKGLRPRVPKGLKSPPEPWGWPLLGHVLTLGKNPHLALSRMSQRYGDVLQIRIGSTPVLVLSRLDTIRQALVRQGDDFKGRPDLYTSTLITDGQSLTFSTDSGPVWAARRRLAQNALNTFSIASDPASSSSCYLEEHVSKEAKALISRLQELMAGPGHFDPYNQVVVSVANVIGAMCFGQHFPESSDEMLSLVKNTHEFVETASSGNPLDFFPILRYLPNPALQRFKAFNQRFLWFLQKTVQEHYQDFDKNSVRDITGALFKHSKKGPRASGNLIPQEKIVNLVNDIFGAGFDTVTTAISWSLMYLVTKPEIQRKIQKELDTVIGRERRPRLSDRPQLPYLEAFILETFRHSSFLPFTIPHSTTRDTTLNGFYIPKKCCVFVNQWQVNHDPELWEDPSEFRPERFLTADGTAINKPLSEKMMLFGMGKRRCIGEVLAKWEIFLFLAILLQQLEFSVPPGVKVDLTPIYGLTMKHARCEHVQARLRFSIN
# Cytochrome P450 2C9 = Cytochrome P450 2C9 (Homo sapiens, UniProt P11712)
# Sequence of Cytochrome P450 2C9 (P11712 whole entry): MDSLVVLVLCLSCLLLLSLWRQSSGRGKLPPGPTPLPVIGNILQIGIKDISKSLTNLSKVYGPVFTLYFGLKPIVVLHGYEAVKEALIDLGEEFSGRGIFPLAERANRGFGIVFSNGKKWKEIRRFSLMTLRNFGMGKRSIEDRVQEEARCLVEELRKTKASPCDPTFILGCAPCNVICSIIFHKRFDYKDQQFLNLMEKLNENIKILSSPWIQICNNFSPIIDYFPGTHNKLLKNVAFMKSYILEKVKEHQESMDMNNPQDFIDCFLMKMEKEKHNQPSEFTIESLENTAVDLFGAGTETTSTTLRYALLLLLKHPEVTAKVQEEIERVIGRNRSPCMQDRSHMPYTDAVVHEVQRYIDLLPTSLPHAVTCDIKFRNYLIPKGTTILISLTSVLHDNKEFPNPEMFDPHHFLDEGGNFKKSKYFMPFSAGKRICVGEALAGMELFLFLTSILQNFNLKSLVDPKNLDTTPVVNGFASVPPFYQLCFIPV
# [3] = target: T4, Short transient receptor potential channel 4 (Mus musculus, UniProt Q9QUQ5); assay: calcium entry via TRPC4 opening agents – cell-based, HEK293 TRPC4/mu-opioid, Fluo-4 calcium, dose response (AID 434937); type: functional
# T4 sequence (Q9QUQ5 whole entry): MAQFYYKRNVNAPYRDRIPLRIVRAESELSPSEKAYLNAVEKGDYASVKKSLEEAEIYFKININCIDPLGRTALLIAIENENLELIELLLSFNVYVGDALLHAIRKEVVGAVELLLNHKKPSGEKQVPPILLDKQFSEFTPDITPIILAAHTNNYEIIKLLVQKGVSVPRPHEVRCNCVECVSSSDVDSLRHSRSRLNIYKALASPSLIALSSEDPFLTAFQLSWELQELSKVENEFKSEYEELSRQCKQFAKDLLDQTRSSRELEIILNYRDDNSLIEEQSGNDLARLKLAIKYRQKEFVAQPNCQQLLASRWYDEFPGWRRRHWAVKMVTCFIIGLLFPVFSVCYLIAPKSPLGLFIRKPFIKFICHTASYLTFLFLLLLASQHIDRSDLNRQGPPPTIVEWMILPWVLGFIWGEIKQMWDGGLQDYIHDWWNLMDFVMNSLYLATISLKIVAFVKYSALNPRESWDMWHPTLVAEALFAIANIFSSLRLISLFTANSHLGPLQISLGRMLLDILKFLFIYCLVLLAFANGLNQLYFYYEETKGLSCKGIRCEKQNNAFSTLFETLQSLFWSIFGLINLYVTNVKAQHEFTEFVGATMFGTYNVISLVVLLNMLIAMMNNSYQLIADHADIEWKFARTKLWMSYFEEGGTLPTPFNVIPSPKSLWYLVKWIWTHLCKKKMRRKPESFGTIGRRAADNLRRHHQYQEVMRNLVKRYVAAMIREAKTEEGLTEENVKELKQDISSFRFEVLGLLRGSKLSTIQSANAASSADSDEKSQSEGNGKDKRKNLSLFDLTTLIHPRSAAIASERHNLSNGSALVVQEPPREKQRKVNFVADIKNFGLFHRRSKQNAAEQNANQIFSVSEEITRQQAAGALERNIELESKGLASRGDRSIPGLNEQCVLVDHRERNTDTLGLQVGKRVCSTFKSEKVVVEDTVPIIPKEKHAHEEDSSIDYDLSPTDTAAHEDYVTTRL
# Cytochrome P450 2D6 = Cytochrome P450 2D6 (Homo sapiens, UniProt P10635);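 further: CYP2D6 member of a cytochrome P450 panel assay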
# Sequence of Cytochrome P450 2D6 (P10635 whole entry): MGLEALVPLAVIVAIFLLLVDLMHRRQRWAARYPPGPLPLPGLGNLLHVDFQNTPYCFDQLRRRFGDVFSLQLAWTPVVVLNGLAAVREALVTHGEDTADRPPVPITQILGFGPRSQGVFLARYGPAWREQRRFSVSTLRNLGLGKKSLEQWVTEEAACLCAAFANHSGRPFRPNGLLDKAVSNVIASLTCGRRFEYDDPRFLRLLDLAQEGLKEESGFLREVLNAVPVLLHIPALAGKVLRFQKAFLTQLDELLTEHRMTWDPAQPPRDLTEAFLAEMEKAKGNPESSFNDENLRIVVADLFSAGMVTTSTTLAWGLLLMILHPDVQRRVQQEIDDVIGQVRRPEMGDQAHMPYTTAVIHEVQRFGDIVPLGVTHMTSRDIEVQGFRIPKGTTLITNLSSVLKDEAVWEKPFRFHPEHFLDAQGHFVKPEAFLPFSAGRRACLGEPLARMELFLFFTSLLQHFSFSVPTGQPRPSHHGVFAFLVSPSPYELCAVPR
# [4] = NIH-3T3 fibroblast cytotoxicity, dose response, cytotoxicity control, cell-based, fluorescence, Alamar Blue, secondary assay (AID 2327); type: functional;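 further: NIH-3T3 mouse fibroblasts cultured with fluconazole at 8 µg/mL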
# [5] = fluconazole-exposed Candida albicans growth modulators – fluorescence, retest, confirmation (AID 2467); type: functional, cell-based
# [6] = microbe, parasite or virus in culture; type: functional; conditions: Mycobacterium tuberculosis
# [7] = target: Heat shock protein HSP 90-alpha (Homo sapiens, UniProt P07900); type: functional, organism-based
# [8] = reduction of Shn3 3'UTR-driven luciferase in osteoblasts – cell-based, Clone20 osteoblasts, firefly luciferase, cherry-picked, dose response (AID 624132); type: functional;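 further: firefly luciferase luminescence from reporter carrying the Shn3 3'UTR in osteoblasts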
# [9] = loss of viability in HepG2 cells – cell-based, CellTiter-Glo, cherry-picked, cytotoxicity control for Shn3 inhibitor project, dose response (AID 624134); type: functional
# [10] = non-specific 3'UTR reporter inhibition in Clone20-Shn3RL – cell-based, Renilla luciferase, cherry-picked, counter-screen for Shn3 inhibitor project, dose response (AID 624133); type: functional
# [11] = target: T5, Rac GTPase-activating protein 1 (Homo sapiens, UniProt Q9H0H5); assay: blockers of MgcRacGAP-driven Rac1 GTP hydrolysis – biochemical, ADP Hunter fluorescence, primary and confirmatory, confirmation (AID 624330); type: functional
# T5 sequence (Q9H0H5 whole entry): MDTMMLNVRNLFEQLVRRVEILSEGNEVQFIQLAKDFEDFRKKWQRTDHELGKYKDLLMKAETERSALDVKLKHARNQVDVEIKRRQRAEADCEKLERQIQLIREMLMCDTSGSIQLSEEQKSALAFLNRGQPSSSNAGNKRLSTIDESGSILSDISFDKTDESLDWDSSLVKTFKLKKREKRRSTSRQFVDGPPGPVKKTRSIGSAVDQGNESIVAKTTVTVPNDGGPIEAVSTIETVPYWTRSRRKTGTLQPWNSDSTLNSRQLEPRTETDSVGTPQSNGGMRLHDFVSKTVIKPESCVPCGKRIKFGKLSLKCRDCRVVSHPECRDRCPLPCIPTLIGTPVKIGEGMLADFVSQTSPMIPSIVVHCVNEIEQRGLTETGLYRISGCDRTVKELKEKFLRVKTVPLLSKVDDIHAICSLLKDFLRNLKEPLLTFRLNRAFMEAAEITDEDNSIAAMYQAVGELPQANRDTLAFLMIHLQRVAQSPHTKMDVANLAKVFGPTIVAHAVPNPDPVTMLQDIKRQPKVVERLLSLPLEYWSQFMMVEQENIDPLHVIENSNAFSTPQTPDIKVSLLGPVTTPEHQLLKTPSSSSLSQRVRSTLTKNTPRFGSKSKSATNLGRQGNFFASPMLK
smiles,measurement,setting,value
Cc1ccc(OCC(=O)N2CCN(C(=O)CCC3CCCC3)CC2)cc1,IC50,Aminopeptidase N,57.3 µM (active)
Clc1ccc(OCCCNCc2ccccc2)c2ccccc12,CC50,[1],23.6 µM (active)
same,IC50,cells,12.2 µM (active)
same,CC50,Vero,> 25 µM (active)
CN(C)CCNc1nc(S(=O)(=O)c2ccccc2)c(Cl)s1,IC50,Aminopeptidase N,51.9 µM (active)
COC(=O)N1CCC2(CC1)CCN(c1ccccc1)CC2,AC50,Cytochrome P450 2C19,5.01 µM (inconclusive)
same,AC50,Cytochrome P450 3A4,inconclusive
CCN(CC)S(=O)(=O)c1ccc2c(c1)c(=O)c(C(=O)NCc1ccco1)cn2C,EC50,[2],> 195 µM (not active)
same,IC50,Prothrombin,2.14 µM (active)
Clc1ccc(Cl)c(OCCCCNCc2ccccc2)c1,CC50,[1],38.1 µM (active)
same,IC50,cells,36.9 µM (active)
Cn1cccc1C(=O)N1CCC2(CC1)CN(C(c1ccccc1)c1ccccc1)C2,AC50,Cytochrome P450 1A2,31.6 µM (inconclusive)
same,AC50,Cytochrome P450 2C9,39.8 µM (inconclusive)
same,AC50,Cytochrome P450 3A4,inconclusive
O=C(O)/C(=C\c1ccccc1)Cc1ccccc1,AC50,Cytochrome P450 2C9,3.98 µM (inconclusive)
same,AC50,Cytochrome P450 3A4,inconclusive
COC(=O)c1ccc(N2CCN(C)CC2)c(NC(=O)c2cccs2)c1,EC50,[3],2.11 µM (active)
Cc1ccc(/C=C2\SC(=S)N(C3CCS(=O)(=O)C3)C2=O)o1 (centres undefined),CC50,[1],> 40 µM (active)
COCC(=O)N1CCC2(CC1)CCN(C(c1ccccc1)c1ccccc1)CC2,AC50,Cytochrome P450 3A4,inconclusive
O=C(c1ccco1)N1CCC2(CC1)CN(c1ccccn1)C2,AC50,Cytochrome P450 2D6,15.8 µM (inconclusive)
same,AC50,Cytochrome P450 3A4,inconclusive
O=C(Oc1ccccc1)N1CCC2(CC1)CN(c1ccccn1)C2,AC50,Cytochrome P450 3A4,inconclusive
CC(C)(C)C(=O)NC(=S)NNC(=O)c1sc2ccccc2c1Cl,EC50,[4],2.54 µM (inconclusive)
same,EC50,[2],3.06 µM (active)
same,EC50,[5],1.35 µM (active)
same,CC50,[6],6.74 µM (active)
same,EC50,[3],0.267 µM (active)
same,AC50,[7],3.26 µM (active)
same,AC50,[8],19.1 µM (active)
same,AC50,[9],12.1 µM (active)
same,AC50,[10],1.54 µM (active)
CCN1CCN(c2c(Cl)cccc2NC(=O)c2ccc3nsnc3c2)CC1,EC50,[3],0.668 µM (active)
Oc1ccc(Cl)cc1/N=C/c1c[nH]nc1O,IC50,Aminopeptidase N,14.3 µM (active)
same,IC50,[11],30 µM (active)
